Assay results reported in patent publication US10653701B2, “Substituted quinazolines for inhibiting kinase activity” (NeuPharma, Inc., priority 2013, dated 2020).

Columns and labels:
[1] = system: H1975 tumor xenograft; experiment: Inhibition of tumor growth in H1975 tumor xenograft model; assay type: in vivo, BALB/c female nude mice; details: QD x 14
Experimental: H1975 cells were implanted in BALB/c female nude mice and grown as tumor xenografts. When tumors achieved 120-200 mm^3, mice were assigned into treatment and control groups using randomized block design based upon their tumor volumes. Each group contained 6 tumor-bearing mice. Tumors were measured twice weekly in two dimensions using a caliper, and the tumor volume was calculated from two-dimensional measurements using the equation V=0.5×a×b^2 where a and b are the long and short diameters of the tumor, respectively. Relative tumor volume (RTV) was defined as TVt/TVi, the ratio of the volume on a given day (TVt) and the volume at the start of treatment (TVi). Relative tumor growth rate (T/C) was defined as RTVT/RTVC, the ratio of relative tumor volume of treatment group (RTVT) and relative tumor volume of control group (RTVC) on a given day. Inhibition of tumor growth in a H1975 tumor xenograft model by some compounds is shown below in Table 6 and Table 7.

[2] = target: FGFR1 (Homo sapiens (Human), UniProt P11362); experiment: Z'-LYTE kinase inhibition assay, FGFR1; assay type: biochemical; details: compound at 0.041 μM
Experimental: Inhibitory activities of compounds against BTK, EGFR and EGFR mutants (EGFR L858R, EGFR T790M, EGFR L858R/T790M), FGFR1, FGFR2, JAK2, JAK3 and KDR were measured by Invitrogen using Z′-LYTE® Method as briefly described in the following.
Test Compounds are screened in 1% DMSO (final) in the well. For 10 point titrations, 3-fold serial dilutions are conducted from the starting concentration. All ATP Solutions are diluted to a 4× working concentration in Kinase Buffer (50 mM HEPES pH 7.5, 0.01% BRIJ-35, 10 mM MgCl2, 1 mM EGTA). Peptide/Kinase Mixtures are diluted to a 2× working concentration in the appropriate Kinase Buffers as described below.
(v) Peptide/Kinase Mixtures for measurement of FGFR1:
The 2×FGFR1/Tyr 04 mixture is prepared in 50 mM HEPES pH 7.5, 0.01% BRIJ-35, 10 mM MgCl2, 4 mM MnCl2, 1 mM EGTA, 2 mM DTT. The final 10 μL Kinase Reaction consists of 0.41-3.5 ng FGFR1 and 2 μM Tyr 04 in 50 mM HEPES pH 7.5, 0.01% BRIJ-35, 10 mM MgCl2, 2 mM MnC12, 1 mM EGTA, 1 mM DTT. After the 1 hour Kinase Reaction incubation, 5 μL of a 1:64 dilution of Development Reagent B is added.
Reaction starts by 30-second shaking of mixture consisting of 2.5 μL 4× test compound, 5 μL 2× kinase reaction mixture and 2.5 μL 4×ATP Solution on Bar-coded Corning, low volume NBS, black 384-well plate (Corning Cat. #3676). […] Finally fluorescence is read by plate reader. […]

[3] = Table 6, 30 mg/kg, Intraperitoneal injection

Chain of FGFR1 (P11362 22-822): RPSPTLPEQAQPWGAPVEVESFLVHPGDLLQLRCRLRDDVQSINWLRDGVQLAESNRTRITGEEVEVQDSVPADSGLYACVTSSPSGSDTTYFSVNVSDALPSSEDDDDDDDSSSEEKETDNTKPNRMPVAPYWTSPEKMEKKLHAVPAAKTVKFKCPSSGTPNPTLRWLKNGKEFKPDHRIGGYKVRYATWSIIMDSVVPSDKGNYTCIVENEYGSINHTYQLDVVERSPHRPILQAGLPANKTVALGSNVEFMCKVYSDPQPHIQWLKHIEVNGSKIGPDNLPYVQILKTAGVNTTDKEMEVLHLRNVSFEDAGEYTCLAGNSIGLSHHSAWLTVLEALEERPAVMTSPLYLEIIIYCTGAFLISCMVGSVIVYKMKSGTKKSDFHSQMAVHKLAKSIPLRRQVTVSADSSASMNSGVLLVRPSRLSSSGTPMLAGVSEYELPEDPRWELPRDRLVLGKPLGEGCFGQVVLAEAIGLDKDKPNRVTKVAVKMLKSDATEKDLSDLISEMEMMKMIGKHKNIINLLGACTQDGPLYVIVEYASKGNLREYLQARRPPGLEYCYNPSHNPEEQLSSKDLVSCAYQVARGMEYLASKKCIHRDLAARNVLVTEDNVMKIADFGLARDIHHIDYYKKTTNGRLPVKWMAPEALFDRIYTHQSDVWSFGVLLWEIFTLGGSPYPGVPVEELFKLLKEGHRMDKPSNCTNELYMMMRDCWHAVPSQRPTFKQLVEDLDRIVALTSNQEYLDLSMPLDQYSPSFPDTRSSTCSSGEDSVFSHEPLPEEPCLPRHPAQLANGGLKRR

| SMILES | T/C [1, 3] [%] | T/C ([1]; Table 7, 60 mg/kg, Oral) [%] | also measured |
| --- | --- | --- | --- |
| C=CC(=O)Nc1cccc(-c2cccc3cnc(Nc4ccc(N5CCN(C)CC5)cc4)nc23)c1 [Example C021, N-(3-(2-((4-(4-methylpiperazin-1-yl)phenyl)amino)quinazolin-8-yl)phenyl)acrylamide] |  |  | T/C ([1]; Table 6, 60 mg/kg, Oral): 30.5% |
| C=CC(=O)Nc1cccc(-c2cccc3cnc(Nc4ccc(N5CCN(C(C)=O)CC5)cc4)nc23)c1 [Example C032, N-(3-(2-((4-(4-acetylpiperazin-1-yl)phenyl)amino)quinazolin-8-yl)phenyl)acrylamide] |  |  | inhibition at 0.041 µM [2]: > 50% |
| C=CC(=O)Nc1cccc(-c2cccc3cnc(Nc4ccc(N5CCN(C)CC5)nc4)nc23)c1 [Example C041, N-(3-(2-((6-(4-methylpiperazin-1-yl)pyridin-3-yl)amino)quinazolin-8-yl)phenyl)acrylamide] | 48.7 |  |  |
| C=CC(=O)Nc1cccc(-c2cccc3cnc(Nc4ccc(N5CCN(CCO)CC5)cc4)nc23)c1 [Example C059, N-(3-(2-((4-(4-(2-hydroxyethyl)piperazin-1-yl)phenyl)amino)quinazolin-8-yl)phenyl)acrylamide] |  |  | T/C ([1]; Table 6, 60 mg/kg, Oral): 35.3% |
| C=CC(=O)Nc1cccc(-c2cccc3cnc(Nc4ccc(NC5CN(CCF)C5)cc4)nc23)c1 [Example C103, N-(3-(2-((4-((1-(2-fluoroethyl)azetidin-3-yl)amino)phenyl)amino)quinazolin-8-yl)phenyl)acrylamide] | 35.8 |  |  |
| C=CC(=O)Nc1cccc(-c2cccc3cnc(Nc4ccc(OCCOC)cc4)nc23)c1 [Example C107, N-(3-(2-((4-(2-methoxyethoxy)phenyl)amino)quinazolin-8-yl)phenyl)acrylamide] | 63.6 |  |  |
| C=CC(=O)Nc1cccc(-c2cccc3cnc(Nc4ccc(N5CCN(CCO)CC5)cc4F)nc23)c1 [Example C147, N-(3-(2-((2-fluoro-4-(4-(2-hydroxyethyl)piperazin-1-yl)phenyl)amino)quinazolin-8-yl)phenyl)acrylamide] |  | 55.7 |  |
| C=CC(=O)Nc1cccc(-c2cccc3cnc(Nc4ccc(N5CCN(CCO)CC5)c(F)c4F)nc23)c1 [Example C151, N-(3-(2-((2,3-difluoro-4-(4-(2-hydroxyethyl)piperazin-1-yl)phenyl)amino)quinazolin-8-yl)phenyl)acrylamide] |  | 28.6 |  |
| C=CC(=O)Nc1cccc(-c2cccc3cnc(Nc4ccc(N5CCN(C)CC5)c(F)c4F)nc23)c1 [Example C156, N-(3-(2-((2,3-difluoro-4-(4-methylpiperazin-1-yl)phenyl)amino)quinazolin-8-yl)phenyl)acrylamide] |  | 36.8 |  |
